The source made the active and inactive calls. The rule behind the calls is not given here.

The target of test [1] is T1, Dual specificity tyrosine-phosphorylation-regulated kinase 3 (Homo sapiens) (UniProt O43781).
T1 sequence (whole entry): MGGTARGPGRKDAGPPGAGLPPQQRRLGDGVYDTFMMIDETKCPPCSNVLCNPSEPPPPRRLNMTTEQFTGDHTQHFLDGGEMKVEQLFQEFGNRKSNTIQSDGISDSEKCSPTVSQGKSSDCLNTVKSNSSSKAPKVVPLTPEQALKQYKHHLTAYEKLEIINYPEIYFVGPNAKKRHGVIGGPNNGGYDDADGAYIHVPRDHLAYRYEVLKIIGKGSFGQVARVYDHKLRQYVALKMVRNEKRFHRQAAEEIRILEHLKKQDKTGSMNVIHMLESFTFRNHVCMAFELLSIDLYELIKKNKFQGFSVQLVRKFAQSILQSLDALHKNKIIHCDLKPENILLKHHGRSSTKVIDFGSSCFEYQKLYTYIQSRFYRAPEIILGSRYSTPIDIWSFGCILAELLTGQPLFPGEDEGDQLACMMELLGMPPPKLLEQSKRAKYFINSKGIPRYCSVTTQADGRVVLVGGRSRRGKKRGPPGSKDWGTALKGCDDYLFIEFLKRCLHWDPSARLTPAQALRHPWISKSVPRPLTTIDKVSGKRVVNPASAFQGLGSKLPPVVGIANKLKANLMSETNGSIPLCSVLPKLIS
Kind of test: Inhibition of human recombinant GST-fused DYRK3 expressed in Escherichia coli at 0.003 to 10 uM using RS peptide as substrate after 30 mins in presence of [gamma-33P]ATP by scintillation counting method.

Test [2] concerns the target CDK2/Cyclin A2 (Homo sapiens) (UniProt P24941+P20248). Kind of test: Inhibition of CDK2/cyclin A (unknown origin) at 0.003 to 10 uM after 30 mins in presence of [gamma-33P]ATP by scintillation counting method. The format is protein-complex assay.
Test [3] is described as follows: Inhibition of porcine brain CK1delta/epsilon using CKS peptide as substrate after 30 mins in presence of [gamma-33P]ATP by scintillation counting method. Further details: species or system Sus scrofa.
The target of test [4] is Dual specificity protein kinase CLK3 (Mus musculus) (UniProt O35492). Kind of test: Inhibition of mouse recombinant GST-fused CLK3 expressed in Escherichia coli at 0.003 to 10 uM using RS peptide as substrate after 30 mins in presence of [gamma-33P]ATP by scintillation counting method.
In test [5] the target is Dual specificity protein kinase CLK4 (Mus musculus) (UniProt O35493). In words: Inhibition of mouse recombinant GST-fused CLK4 expressed in Escherichia coli at 0.003 to 10 uM using RS peptide as substrate after 30 mins in presence of [gamma-33P]ATP by scintillation counting method.
For test [6], the target named is Dual specificity protein kinase CLK2 (Mus musculus) (UniProt O35491). Kind of test: Inhibition of mouse recombinant GST-fused CLK2 expressed in Escherichia coli at 0.003 to 10 uM using RS peptide as substrate after 30 mins in presence of [gamma-33P]ATP by scintillation counting method.
For another test, the system named is Leishmania major. In words: Inhibition of Leishmania major recombinant CK1 expressed in Escherichia coli at 0.003 to 10 uM using CKS peptide as substrate after 30 mins in presence of [gamma-33P]ATP by scintillation counting method.
The target of test [7] is Dual specificity tyrosine-phosphorylation-regulated kinase 1B (Homo sapiens) (UniProt Q9Y463). In words: Inhibition of human recombinant GST-fused DYRK1B expressed in Escherichia coli at 0.003 to 10 uM using RS peptide as substrate after 30 mins in presence of [gamma-33P]ATP by scintillation counting method.
In test [8] the target is T2, Dual specificity tyrosine-phosphorylation-regulated kinase 2 (Homo sapiens) (UniProt Q92630).
T2 sequence (whole entry): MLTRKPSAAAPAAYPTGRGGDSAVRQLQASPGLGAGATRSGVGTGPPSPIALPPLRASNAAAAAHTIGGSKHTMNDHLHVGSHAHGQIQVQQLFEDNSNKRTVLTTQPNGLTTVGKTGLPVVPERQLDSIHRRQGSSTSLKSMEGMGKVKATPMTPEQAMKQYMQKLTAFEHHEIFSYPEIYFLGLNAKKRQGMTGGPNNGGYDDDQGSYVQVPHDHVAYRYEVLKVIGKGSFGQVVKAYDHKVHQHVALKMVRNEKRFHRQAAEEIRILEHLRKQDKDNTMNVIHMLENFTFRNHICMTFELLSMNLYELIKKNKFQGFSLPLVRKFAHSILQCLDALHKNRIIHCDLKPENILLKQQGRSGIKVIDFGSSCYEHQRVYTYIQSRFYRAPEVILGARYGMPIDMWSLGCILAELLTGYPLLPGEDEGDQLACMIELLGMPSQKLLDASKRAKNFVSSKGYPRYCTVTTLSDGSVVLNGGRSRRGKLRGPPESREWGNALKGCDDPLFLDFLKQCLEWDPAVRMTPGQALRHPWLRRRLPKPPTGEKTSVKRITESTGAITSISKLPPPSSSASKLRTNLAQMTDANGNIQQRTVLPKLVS
In words: Inhibition of human recombinant GST-fused DYRK2 expressed in Escherichia coli at 0.003 to 10 uM using RS peptide as substrate after 30 mins in presence of [gamma-33P]ATP by scintillation counting method.

The next test is filed under the species Sus scrofa. Kind of test: Inhibition of porcine brain CK1delta/epsilon at 0.003 to 10 uM using CKS peptide as substrate after 30 mins in presence of [gamma-33P]ATP by scintillation counting method.
Test [9] addresses Dual specificity protein kinase CLK1 (Mus musculus) (UniProt P22518). Kind of test: Inhibition of mouse recombinant GST-fused CLK1 expressed in Escherichia coli at 0.003 to 10 uM using RS peptide as substrate after 30 mins in presence of [gamma-33P]ATP by scintillation counting method.
For test [10], the target named is CDK9/cyclin T1 (Homo sapiens) (UniProt O60563+P50750). In words: Inhibition of recombinant human CDK9/cyclin T expressed in insect cells at 0.003 to 10 uM using CDK7/9-Tide as substrate after 30 mins in presence of [gamma-33P]ATP by scintillation counting method.
A further test is filed under the species Homo sapiens. Kind of test: Inhibition of GSK3 (unknown origin) at 0.003 to 10 uM using GS-1 as substrate after 30 mins in presence of [gamma-33P]ATP by scintillation counting method.
The target in test [11] is Dual specificity tyrosine-phosphorylation-regulated kinase 1A (Homo sapiens) (UniProt Q13627). Kind of test: Inhibition of GST-fused DYRK1A (unknown origin) expressed in Escherichia coli at 0.003 to 10 uM using RS peptide as substrate after 30 mins in presence of [gamma-33P]ATP by scintillation counting method.
Test [12] addresses Cyclin-dependent kinase 5/CDK5 activator 1 (Homo sapiens) (UniProt Q00535+Q15078). In words: Inhibition of recombinant human CDK5/p25 expressed in Escherichia coli at 0.003 to 10 uM using histone H1 as substrate after 30 mins in presence of [gamma-33P]ATP by scintillation counting method.

Sequence of Dual specificity protein kinase CLK4 (Mus musculus) (O35493 whole entry, looked up, the tested form may be a part): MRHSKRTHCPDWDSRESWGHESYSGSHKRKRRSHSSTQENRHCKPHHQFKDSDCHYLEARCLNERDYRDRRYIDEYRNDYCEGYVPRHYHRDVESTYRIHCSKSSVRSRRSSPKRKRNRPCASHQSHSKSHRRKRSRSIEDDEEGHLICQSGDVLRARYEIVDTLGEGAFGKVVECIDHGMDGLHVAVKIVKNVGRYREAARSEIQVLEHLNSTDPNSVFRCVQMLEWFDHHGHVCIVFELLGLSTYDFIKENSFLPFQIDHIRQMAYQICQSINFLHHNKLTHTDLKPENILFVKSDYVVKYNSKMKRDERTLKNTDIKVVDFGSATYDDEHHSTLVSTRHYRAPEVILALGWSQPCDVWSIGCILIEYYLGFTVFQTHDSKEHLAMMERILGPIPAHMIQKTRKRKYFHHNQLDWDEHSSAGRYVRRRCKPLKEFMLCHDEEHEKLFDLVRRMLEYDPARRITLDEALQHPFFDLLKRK
Sequence of Cyclin-dependent kinase 5/CDK5 activator 1 (Homo sapiens) (Q00535 whole entry): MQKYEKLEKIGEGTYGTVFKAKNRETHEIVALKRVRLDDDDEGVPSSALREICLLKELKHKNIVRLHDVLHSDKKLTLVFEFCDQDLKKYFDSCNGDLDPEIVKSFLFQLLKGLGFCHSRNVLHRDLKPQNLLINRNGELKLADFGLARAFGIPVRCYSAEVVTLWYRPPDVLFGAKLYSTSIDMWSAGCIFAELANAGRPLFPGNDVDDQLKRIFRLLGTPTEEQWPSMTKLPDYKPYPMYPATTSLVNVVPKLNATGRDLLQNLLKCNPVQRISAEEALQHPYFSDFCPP
Sequence of Cyclin-dependent kinase 5/CDK5 activator 1 (Homo sapiens) (Q15078 99-307 partner limits assumed): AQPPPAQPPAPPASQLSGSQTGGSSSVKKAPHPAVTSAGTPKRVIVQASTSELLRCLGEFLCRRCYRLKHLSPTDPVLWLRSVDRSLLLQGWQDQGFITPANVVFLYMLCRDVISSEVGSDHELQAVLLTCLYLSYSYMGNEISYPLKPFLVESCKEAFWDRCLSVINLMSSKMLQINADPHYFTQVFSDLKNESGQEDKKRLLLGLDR
Sequence of Dual specificity protein kinase CLK3 (Mus musculus) (O35492 whole entry, the tested form may be a part): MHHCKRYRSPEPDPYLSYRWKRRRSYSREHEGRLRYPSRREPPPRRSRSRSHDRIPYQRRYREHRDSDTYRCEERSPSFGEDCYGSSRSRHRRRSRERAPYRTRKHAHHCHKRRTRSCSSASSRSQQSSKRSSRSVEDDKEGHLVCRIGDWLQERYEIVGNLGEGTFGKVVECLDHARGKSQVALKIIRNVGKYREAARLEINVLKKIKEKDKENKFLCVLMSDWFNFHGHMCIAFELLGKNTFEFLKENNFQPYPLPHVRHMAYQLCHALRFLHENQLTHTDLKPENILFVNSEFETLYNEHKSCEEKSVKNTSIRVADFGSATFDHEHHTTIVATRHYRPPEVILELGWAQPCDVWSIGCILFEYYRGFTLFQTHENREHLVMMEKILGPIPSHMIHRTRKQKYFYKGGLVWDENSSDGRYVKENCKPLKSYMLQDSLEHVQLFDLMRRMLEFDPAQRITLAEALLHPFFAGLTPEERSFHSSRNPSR
Sequence of Dual specificity protein kinase CLK2 (Mus musculus) (O35491 whole entry, looked up, the tested form may be a part): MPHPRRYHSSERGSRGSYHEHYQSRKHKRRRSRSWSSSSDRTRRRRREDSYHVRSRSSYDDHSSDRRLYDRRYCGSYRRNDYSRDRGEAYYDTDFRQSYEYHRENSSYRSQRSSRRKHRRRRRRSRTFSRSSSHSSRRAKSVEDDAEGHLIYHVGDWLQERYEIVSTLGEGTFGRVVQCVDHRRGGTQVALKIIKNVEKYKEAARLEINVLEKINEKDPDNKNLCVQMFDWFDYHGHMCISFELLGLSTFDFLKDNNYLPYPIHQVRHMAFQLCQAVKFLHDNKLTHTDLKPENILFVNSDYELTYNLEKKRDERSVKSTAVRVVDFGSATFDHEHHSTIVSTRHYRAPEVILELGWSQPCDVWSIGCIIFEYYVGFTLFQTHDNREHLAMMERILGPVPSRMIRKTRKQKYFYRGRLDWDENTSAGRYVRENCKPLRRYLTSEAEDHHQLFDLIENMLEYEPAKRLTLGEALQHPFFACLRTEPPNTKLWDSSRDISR
Sequence of Dual specificity tyrosine-phosphorylation-regulated kinase 1B (Homo sapiens) (Q9Y463 whole entry, looked up, the tested form may be a part): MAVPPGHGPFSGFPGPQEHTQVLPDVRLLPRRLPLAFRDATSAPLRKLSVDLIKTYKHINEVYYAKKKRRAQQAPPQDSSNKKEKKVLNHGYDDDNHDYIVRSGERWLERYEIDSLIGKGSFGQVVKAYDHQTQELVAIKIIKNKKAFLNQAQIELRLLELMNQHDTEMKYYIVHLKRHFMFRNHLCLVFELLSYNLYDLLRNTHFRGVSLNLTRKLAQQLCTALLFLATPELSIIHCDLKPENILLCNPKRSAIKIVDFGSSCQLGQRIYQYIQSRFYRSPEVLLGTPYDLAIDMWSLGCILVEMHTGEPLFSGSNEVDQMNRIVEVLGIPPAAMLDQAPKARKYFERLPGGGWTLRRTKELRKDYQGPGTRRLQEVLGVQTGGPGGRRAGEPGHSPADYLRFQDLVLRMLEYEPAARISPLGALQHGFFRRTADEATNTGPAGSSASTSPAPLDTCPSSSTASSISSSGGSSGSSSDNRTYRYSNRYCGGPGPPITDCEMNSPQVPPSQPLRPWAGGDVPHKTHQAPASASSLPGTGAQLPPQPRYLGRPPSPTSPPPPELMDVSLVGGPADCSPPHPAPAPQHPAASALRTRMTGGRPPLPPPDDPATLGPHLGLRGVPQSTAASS
Sequence of Dual specificity protein kinase CLK1 (Mus musculus) (P22518 whole entry, looked up, the tested form may be a part): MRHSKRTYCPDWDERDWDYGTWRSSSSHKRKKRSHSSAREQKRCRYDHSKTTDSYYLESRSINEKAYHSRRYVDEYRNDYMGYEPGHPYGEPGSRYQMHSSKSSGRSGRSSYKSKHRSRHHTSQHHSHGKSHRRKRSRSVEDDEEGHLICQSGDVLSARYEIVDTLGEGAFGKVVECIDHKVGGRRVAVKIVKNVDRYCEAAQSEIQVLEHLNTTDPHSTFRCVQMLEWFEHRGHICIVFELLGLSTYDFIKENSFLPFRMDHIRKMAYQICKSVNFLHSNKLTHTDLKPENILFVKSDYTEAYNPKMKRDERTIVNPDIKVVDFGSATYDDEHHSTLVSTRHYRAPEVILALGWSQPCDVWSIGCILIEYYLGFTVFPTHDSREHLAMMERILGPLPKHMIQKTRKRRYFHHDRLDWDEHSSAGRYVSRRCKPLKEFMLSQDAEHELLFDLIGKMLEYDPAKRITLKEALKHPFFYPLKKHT

One may read the IC50 as the concentration that inhibits the measured activity by half. Turning to `ClC[N@@+]12CCCC/C=C\CC[C@@H]3C=C4CN(CCCC/C=C\CC[C@H](C1)[C@H]4CC2)C3`, the inhibition entry (in [1]; in test [2]; in test [4]; in test [5]; in test [6]; in the test with Leishmania major) was “inactive” throughout. Moreover, the inhibition result in test [7] and in test [8] was “inactive” each time. Besides, the IC50 in test [3] amounted to 6 µM.
Turning to `C1=C2CN3CCCC/C=C\CC[C@@H]4CN(CCCC/C=C\CC[C@H]1C3)CC[C@@H]24`, the inhibition entry (in the test filed under Sus scrofa; in test [9]; in test [10]; in the test filed under Homo sapiens; in test [11]; in [12]) was “inactive” throughout.
